Values of other authors as cited in US9192591B2, “Method and composition for treating alzheimer-type dementia” (priority 2008, dated 2015).

What was measured:
[1] = tested on: patients with dementias of the Alzheimer type; settings: donepezil 5-10 mg per day; rivastigmine 1-4 and 6-12 mg per day; galantamine 8-32 mg per day
[2] = tested on: patients with Alzheimer's disease treated with tacrine; settings: propantheline 7.5 mg to 15 mg four times a day
[3] = tested on: patients with Alzheimer's disease; settings: skin patches replacing immediate release tablets

| Structure (SMILES) | benefits on cognitive and global measures relevant to dementia [1] | effect on peripheral cholinergic gastrointestinal side effects of tacrine (cramping, nausea, vomiting, diarrhea) [2] | patients who discontinued because of vomiting (patients; compared to less than 1% on placebo) | patients in whom weight declined (patients; during rivastigmine therapy) [%] | patients reporting loss of appetite (patients; in vivo) [%] | patients who become nauseated (patients; oral 6-12 mg/day) | patients who vomit at least once (patients; oral 6-12 mg/day) | patients with mild or moderate vomiting (patients; rivastigmine-treated patients) [%] | patients with severe vomiting (patients; rivastigmine-treated patients) [%] | amount of cognitive improvement and side effects on doubling the dose [3] |
| --- | --- | --- | --- | --- | --- | --- | --- | --- | --- | --- |
| COc1cc2c(cc1OC)C(=O)C(CC1CCN(Cc3ccccc3)CC1)C2 (racemic) [donepezil, (±)-2,3-dihydro-5,6-dimethoxy-2-[[1-(phenylmethyl)-4-piperidinyl]methyl]-1H-inden-1-one] | small, but statistically significant, benefits |  |  |  |  |  |  |  |  |  |
| CC(C)[N+](C)(CCOC(=O)C1c2ccccc2Oc2ccccc21)C(C)C [propantheline] |  | ameliorated |  |  |  |  |  |  |  |  |
| CCN(C)C(=O)Oc1cccc([C@H](C)N(C)C)c1 [rivastigmine, (S)—N-Ethyl-N-methyl-3-[1-(dimethylamino)ethyl]-phenyl carbamate] | small, but statistically significant, benefits |  | Five | 25 | 17 | About half | about one-third | 14 | 2 | significantly increased the amount of cognitive improvement in patients with Alzheimer's disease without increasing side effects |
